Reference: PubChem BioAssay (NCI)
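Five concentrations, 48 hours, 96-well plates. TGI is the concentration that stops growth completely.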

Tests used:
Assay in all cases: NCI-60 cell line screen, 48 h
HT29 colon = test system: HT29 colon
IGROV1 ovarian = test system: IGROV1 ovarian
A498 renal = test system: A498 renal
SNB-75 CNS = test system: SNB-75 CNS
OVCAR-5 ovarian = test system: OVCAR-5 ovarian
SR leukemia = test system: SR leukemia
OVCAR-8 ovarian = test system: OVCAR-8 ovarian
U251 CNS = test system: U251 CNS
NCI/ADR-RES ovarian = test system: NCI/ADR-RES ovarian
NCI-H522 lung = test system: NCI-H522 lung

In the case of `COC(=O)CCC(C)[C@H]1CCC2C3C(C[C@H](OC(C)=O)[C@@]21C)[C@@]1(C)CCC2(C[C@H]1C[C@H]3OC(C)=O)OOC1(CCCCC1)OO2` (stereo not given in full), the TGI (HT29 colon) is reported as > 100 µM, the TGI (IGROV1 ovarian) is reported as 20.8 µM and the TGI (A498 renal) is reported as > 100 µM. The TGI (SNB-75 CNS) was 79.3 µM, the TGI (OVCAR-5 ovarian) was > 100 µM and the TGI (SR leukemia) was > 100 µM. For the same compound, the TGI (OVCAR-8 ovarian) was > 100 µM, the TGI (U251 CNS) was > 100 µM and the TGI (NCI/ADR-RES ovarian) was > 100 µM. It also gave a TGI (NCI-H522 lung) of 60.5 µM.
With `O=c1oc2c(ccc3c(O)cccc32)c2c1CCCC2` the TGI (HT29 colon) was > 100 µM, the TGI (IGROV1 ovarian) was > 100 µM and the TGI (A498 renal) was 80.8 µM. The TGI (SNB-75 CNS) was 19.9 µM, the TGI (OVCAR-5 ovarian) was > 100 µM and the TGI (SR leukemia) was > 100 µM. For the same compound, the TGI (OVCAR-8 ovarian) was > 100 µM, the TGI (U251 CNS) was 55.9 µM and the TGI (NCI/ADR-RES ovarian) was > 100 µM. The TGI (NCI-H522 lung) was > 100 µM.
For `CC1=C(C)C(=O)C(C2=C(C3=CC(=O)C(C)=C(C)C3=O)C(=O)c3ccccc3C2=O)=CC1=O`, the TGI (HT29 colon) was 5.47 µM, the TGI (IGROV1 ovarian) was 7.14 µM and the TGI (A498 renal) was 18.4 µM. For the same compound, the TGI (SNB-75 CNS) was 19.6 µM, the TGI (OVCAR-5 ovarian) was 32.2 µM and the TGI (SR leukemia) was 14.1 µM. For the same compound, the TGI (OVCAR-8 ovarian) was 8.07 µM, the TGI (U251 CNS) was 12.6 µM and the TGI (NCI/ADR-RES ovarian) was 36.7 µM. It also gave a TGI (NCI-H522 lung) of 5.49 µM.
For `COC(=O)[C@@H]1[C@H](O)CC[C@H]2[C@@]1(C)CC[C@@H](C)[C@]2(COC(C)=O)CC(=O)c1ccoc1`, the TGI (HT29 colon) was > 50 µM, the TGI (IGROV1 ovarian) was > 50 µM and the TGI (A498 renal) was > 50 µM. For the same compound, the TGI (SNB-75 CNS) was > 50 µM, the TGI (OVCAR-5 ovarian) was > 50 µM and the TGI (SR leukemia) was > 50 µM. The TGI (OVCAR-8 ovarian) was > 50 µM, the TGI (U251 CNS) was > 50 µM and the TGI (NCI/ADR-RES ovarian) was > 50 µM. The TGI (NCI-H522 lung) was > 50 µM.
`CCc1n[nH]c(=S)n1/N=C\c1ccc(-c2ccccc2[N+](=O)[O-])o1` was tested, and the TGI (HT29 colon) was > 100 µM, the TGI (IGROV1 ovarian) was > 100 µM and the TGI (A498 renal) was > 100 µM. For the same compound, the TGI (SNB-75 CNS) was > 100 µM, the TGI (OVCAR-5 ovarian) was > 100 µM and the TGI (SR leukemia) was 57.8 µM. The TGI (OVCAR-8 ovarian) was > 100 µM, the TGI (U251 CNS) was > 100 µM and the TGI (NCI/ADR-RES ovarian) was 81.5 µM. For the same compound, the TGI (NCI-H522 lung) was > 100 µM.
